Measurements from article PMC8472793 (Microorganisms, 2021).
Each block holds one molecule with its values, some of them ahead of it.

Experiments:
[1] = biological target: T1, Pro1 (γ-glutamyl kinase, GK) (Saccharomyces cerevisiae, UniProt P32264); experiment: PK/LDH-coupled ADP production, NADH oxidation at […] nm; type: biochemical; conditions: 10 mM MgCl2, 100 mM HEPES-NaOH pH 7.4, 30 °C, no proline
T1 sequence (P32264 1-428): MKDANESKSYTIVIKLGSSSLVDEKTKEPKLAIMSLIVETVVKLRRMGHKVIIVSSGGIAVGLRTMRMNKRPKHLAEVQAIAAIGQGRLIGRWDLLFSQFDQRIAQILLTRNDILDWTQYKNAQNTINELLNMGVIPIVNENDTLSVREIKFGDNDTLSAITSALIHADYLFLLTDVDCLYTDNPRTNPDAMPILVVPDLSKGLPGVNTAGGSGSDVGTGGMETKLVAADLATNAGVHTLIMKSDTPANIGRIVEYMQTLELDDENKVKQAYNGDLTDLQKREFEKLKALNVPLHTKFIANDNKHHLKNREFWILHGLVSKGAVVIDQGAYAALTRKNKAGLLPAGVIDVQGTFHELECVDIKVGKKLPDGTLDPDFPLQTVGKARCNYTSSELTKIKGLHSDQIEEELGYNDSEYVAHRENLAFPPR

[2] = biological target: Pro1 (γ-glutamyl kinase, GK) (Saccharomyces cerevisiae, UniProt P32264, Q79H); experiment: biochemical; conditions: read-out: relative activity at 500 mM proline
[3] = biological target: Pro1 (γ-glutamyl kinase, GK) (Saccharomyces cerevisiae, UniProt P32264, I150T); experiment: biochemical; conditions: read-out: relative activity at 500 mM proline
[4] = biological target: Pro1 (γ-glutamyl kinase, GK) (Saccharomyces cerevisiae, UniProt P32264, D143A); experiment: biochemical; conditions: read-out: relative activity at 500 mM proline
Chain of Pro1 (γ-glutamyl kinase, GK) (Saccharomyces cerevisiae, UniProt P32264, D143A) (P32264 whole entry D143A): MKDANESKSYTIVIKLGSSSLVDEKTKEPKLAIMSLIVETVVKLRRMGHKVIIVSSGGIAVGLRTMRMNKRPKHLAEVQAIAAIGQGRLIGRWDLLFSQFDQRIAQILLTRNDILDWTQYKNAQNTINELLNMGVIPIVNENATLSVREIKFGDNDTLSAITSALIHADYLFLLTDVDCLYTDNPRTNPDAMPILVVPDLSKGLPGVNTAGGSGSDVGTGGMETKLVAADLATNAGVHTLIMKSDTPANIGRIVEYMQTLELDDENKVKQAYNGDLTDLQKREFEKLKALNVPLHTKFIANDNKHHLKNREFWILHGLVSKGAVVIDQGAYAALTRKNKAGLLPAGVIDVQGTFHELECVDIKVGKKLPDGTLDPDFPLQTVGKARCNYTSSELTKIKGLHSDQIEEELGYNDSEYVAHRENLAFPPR

Chain of Pro1 (γ-glutamyl kinase, GK) (Saccharomyces cerevisiae, UniProt P32264, Q79H) (P32264 whole entry Q79H): as the sequence (P32264 whole entry D143A) above, with Q79H, A143D counted along it
Chain of Pro1 (γ-glutamyl kinase, GK) (Saccharomyces cerevisiae, UniProt P32264, I150T) (P32264 whole entry I150T): as the sequence (P32264 whole entry D143A) above, with A143D, I150T counted along it

Structure (SMILES): Nc1ncnc2c1ncn2[C@@H]1O[C@H](COP(=O)(O)OP(=O)(O)OP(=O)(O)O)[C@@H](O)[C@H]1O [ATP]
PK/LDH-coupled ADP production, NADH oxidation at 340 nm ([1]; 400 mM sodium glutamate, ATP 5 mM): GK activity was measured by the production of ADP in an enzyme-coupled system

activity at 500000 µM [2]: ~96% | activity at 500000 µM [3]: 50% | activity at 500000 µM [4]: ~95%
Structure (SMILES): O=C(O)[C@@H]1CCCN1 [proline]

Structure (SMILES): N[C@@H](CCC(=O)O)C(=O)O [sodium glutamate]
PK/LDH-coupled ADP production, NADH oxidation at 340 nm ([1]; 5 mM ATP, glutamate 400 mM): sodium glutamate was added to initiate the enzymatic reaction
